{
  "source": "patent US12655041B2",
  "about": "“Method for operating reverse osmosis membrane device, a slime control method, and a water treatment device” (priority 2021, dated 2026)",
  "key": {"[1]": {"test_system": "slime in a reverse osmosis membrane", "assay": "Test Example 1: evaluation of slime inhibition in reverse osmosis membrane (membrane fouling simulator, days to 100 kPa differential pressure)", "design": "species or system microorganism", "details": "days for differential pressure to reach 100 kPa; substrates ethanol 50 mg/L as C, ammonium chloride 10 mg/L as N, sodium dihydrogen phosphate 0.5 mg/L as P; 25° C.; no chemical added: 8", "method": "(§1) A substrate was added to raw water, and a biofouling effect of a microorganism was accelerated. Specifically, as substrates, ethanol, ammonium chloride and sodium dihydrogen phosphate were added to raw water so that the concentrations reached 50 mg/L as C, 10 mg/L as N and 0.5 mg/L as P, respectively, thereby producing water to be treated. The pH of the raw water (water to be treated) was 6 to 8, TOC was 1 mg/L, ORP was 300 mV, and the water temperature was 25° C.\nThis water to be treated was pressurized to 1.5 MPa with a pump and supplied as supply water (the water amount was 100 mL/min, the water pressure was 0.2 MPa, and the water temperature was 25° C.) to a concentrate compartment of an RO membrane device, and an RO membrane treatment was performed. […]\n(§2) Upon the evaluation of slime inhibition in a reverse osmosis membrane, the number of days taken for the differential pressure to increase up to 100 kPa under conditions shown in Table 1 was measured using a membrane fouling simulator that is in Non-Patent Literature 1 (J. S. Vrouwenvelder et. al.), and the day where this differential pressure was reached was regarded as a day when biofouling occurred, that is, an occlusion day. It is evaluated that, as the number of days taken until this occlusion increases, slime can be inhibited more favorable."}, "[2]": {"test_system": "slime in a reverse osmosis membrane", "assay": "Test Example 4: number of days for the differential pressure to reach 100 kPa", "design": "species or system microorganism", "details": "days for differential pressure to reach 100 kPa; substrates 30 mg/L as C, 10 mg/L as N, 0.5 mg/L as P; 20° C.; no addition: 10", "method": "as §1\nThis water to be treated was pressurized to 1.5 MPa with a pump and supplied as supply water (the water amount was 100 mL/min, the water pressure was […], and the water temperature was 25° C.) to a concentrate compartment of an RO membrane device, and an RO membrane treatment was performed. As the RO membrane device, a device in which one vessel was filled with a 4-inch spiral RO membrane element of an aromatic polyamide-based RO membrane (manufactured by Nitto Denko Corporation, ES20) was used. The flow rate of the supply water was 3 to 10 m^3/h per 8-inch spiral module. A change in the differential pressure means a change in the difference of the pressure at each water-passing time after the beginning of measurement from 0 kPa that is a set pressure at the time of the beginning of the measurement.\nas §2\nA test was performed under the same conditions as in <Test Example 1> except that water to be treated prepared by adding, as substrates, ethanol, ammonium chloride and sodium dihydrogen phosphate to raw water so that the concentrations reached 30 mg/L as C, 10 mg/L as N and 0.5 mg/L as P, respectively, was used, the water temperature of the water to be treated was set and adjusted to 20° C., and the addition periods and addition concentrations of the slime inhibitors were set as shown in Table 2.\nThe oxidation-based slime inhibitor is continuously added “for 30 minutes”, and the water to be treated containing the chemical is continuously passed through the RO membrane device downstream thereof “for 30 minutes”.\nThe organic-based slime inhibitor is continuously added “for 30 minutes”, and the water to be treated containing the chemical is continuously passed through the RO membrane device downstream thereof “for 30 minutes”. […]"}},
  "data": [
    {"smiles": "Cn1sc(Cl)cc1=O", "note": "[1-3, 5-chloro-2-methyl-4-isothiazolin-3-one]", "values": [
      {"measurement": "Number of days until occlusion", "setting": "[1]", "result": 15, "unit": "days"}
    ]},
    {"smiles": "O=S(=O)([O-])NCl.[Na+]", "note": "[4-2, Sodium monochlorosulfamate]", "values": [
      {"measurement": "Number of days until occlusion", "setting": "[2]", "result": 12, "unit": "days"}
    ]},
    {"smiles": "O=S(=O)([O-])NCl.[Na+]", "note": "[4-3, Sodium monochlorosulfamate]", "values": [
      {"measurement": "Number of days until occlusion", "setting": "[2]", "result": 30, "unit": "days"}
    ]},
    {"smiles": "Cn1sc(Cl)cc1=O", "note": "[4-4, 5-chloro-2-methyl-4-isothiazolin-3-one]", "values": [
      {"measurement": "Number of days until occlusion", "setting": "[2]", "result": 32, "unit": "days"}
    ]},
    {"smiles": "Cn1sc(Cl)cc1=O", "note": "[4-5, 5-chloro-2-methyl-4-isothiazolin-3-one]", "values": [
      {"measurement": "Number of days until occlusion", "setting": "[2]", "result": 18, "unit": "days"}
    ]},
    {"smiles": "O=S(=O)([O-])NCl.[Na+]", "note": "[Comparative Example 1-2, Sodium monochlorosulfamate]", "values": [
      {"measurement": "Number of days until occlusion", "setting": "[1]", "result": 12, "unit": "days"}
    ]}
  ]
}
